Test system: not given
Assay: not given
Conditions: not given

Row | SMILES | melting point [°C]
1 | COc1cc(N2CCn3nc(COc4ccccc4)cc3C2=O)nc(C)n1 [Example 105] | 131.9
2 | COc1cnc(N2CCn3nc(COc4ccccc4)cc3C2=O)nc1OC [Example 107] | 169.6
3 | COc1nc(N2CCn3nc(COc4ccccc4)cc3C2=O)ccc1C [Example 108] | 145.3
4 | CC(C)c1cccc(N2CCn3nc(COc4ccccc4)cc3C2=O)n1 [Example 111] | 101.8
5 | COc1ccc(N2CCn3nc(COc4ccccc4)cc3C2=O)c(C)n1 [Example 114] | 136.3
6 | Cc1ccc(N2CCn3nc(COc4ccccc4)cc3C2=O)c(C)n1 [Example 116] | > 300
7 | Cc1cnc(C)c(N2CCn3nc(COc4ccccc4)cc3C2=O)n1 [Example 120] | 141.7
8 | O=C1c2cc(COc3ccccc3)nn2CCN1c1ncc(F)cn1 [Example 126] | 161.3
9 | Cc1nc(N2CC(C)n3nc(COc4ccccc4)cc3C2=O)ccc1F (stereo not shown) [Example 134] | 87.4
10 | C[C@@H]1Cn2nc(COc3ccccc3)cc2C(=O)N1CC1CC1 [Example 137] | 64.6
11 | Cc1nc(N2C(=O)c3cc(COc4ccccc4)nn3C[C@@H]2C)ccc1F [Example 138] | 93.3

Second part, the compound after the results:

Row | melting point [°C] | SMILES
12 | 156 | Cc1nc(N2C(=O)c3cc(COc4ccccc4)nn3C[C@H]2C)ccc1F [Example 140]
13 | 71.9 | C[C@@H]1Cn2nc(COc3ccccc3)cc2C(=O)N1c1ccc(F)cn1 [Example 141]
14 | 135.8 | COc1cc(N2C(=O)c3cc(COc4ccccc4)nn3C[C@H]2C)ccc1F [Example 143]
15 | 94.6 | Cc1cc(N2C(=O)c3cc(COc4ccccc4)nn3C[C@H]2C)ccc1F [Example 144]
16 | 145.5 | COc1ncccc1N1C(=O)c2cc(COc3ccccc3)nn2C[C@H]1C [Example 148]
17 | 104.9 | COc1nccnc1N1C(=O)c2cc(COc3ccccc3)nn2C[C@H]1C [Example 149]
18 | 171.5 | Cc1ccccc1N1C(=O)c2cc(COc3ccccc3)nn2C[C@H]1C [Example 154]
19 | 99.3 | Cc1cc(N2C(=O)c3cc(COc4ccccc4)nn3C[C@H]2C)ncc1F [Example 155]
20 | > 300 | COc1nc(N2C(=O)c3cc(COc4ccccc4)nn3C[C@H]2C)ncc1C [Example 156]
21 | 149.5 | O=C1c2cc(COc3ccncc3)nn2CCN1c1ccc(F)cc1 [Example 160]
22 | 182.5 | Cc1cccc(OCc2cc3n(n2)CCN(c2ccc(F)cc2)C3=O)c1 [Example 166]
23 | 110.7 | O=C1c2cc(COc3cncc(F)c3)nn2CCN1CC1CC1 [Example 171]
24 | > 300 | Cc1cc(OCc2cc3n(n2)CCN(c2ccc(F)cc2)C3=O)ccn1 [Example 174]

Target: T1, human mGluR5a receptor (Homo sapiens, UniProt P41594)
T1 construct: cDNA subcloned into pcDNA3.1(-)
Assay: Cell-based functional Ca2+ mobilization assay (FDSS), potentiation of glutamate EC20 response
Conditions: EC50 (nM), HEK cells transfected with human mGluR5 (H10H or H12H); in presence of EC20 glutamate
In short: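 HEK293A cells stably expressing human mGluR5a (H10H or H12H clones), plated overnight in glutamate-glutamine-free medium, loaded with Ca2+-sensitive dye (e.g. Fluo-4) and read on FDSS.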

T1 sequence (P41594 21-1180 isoform P41594-2 limits assumed): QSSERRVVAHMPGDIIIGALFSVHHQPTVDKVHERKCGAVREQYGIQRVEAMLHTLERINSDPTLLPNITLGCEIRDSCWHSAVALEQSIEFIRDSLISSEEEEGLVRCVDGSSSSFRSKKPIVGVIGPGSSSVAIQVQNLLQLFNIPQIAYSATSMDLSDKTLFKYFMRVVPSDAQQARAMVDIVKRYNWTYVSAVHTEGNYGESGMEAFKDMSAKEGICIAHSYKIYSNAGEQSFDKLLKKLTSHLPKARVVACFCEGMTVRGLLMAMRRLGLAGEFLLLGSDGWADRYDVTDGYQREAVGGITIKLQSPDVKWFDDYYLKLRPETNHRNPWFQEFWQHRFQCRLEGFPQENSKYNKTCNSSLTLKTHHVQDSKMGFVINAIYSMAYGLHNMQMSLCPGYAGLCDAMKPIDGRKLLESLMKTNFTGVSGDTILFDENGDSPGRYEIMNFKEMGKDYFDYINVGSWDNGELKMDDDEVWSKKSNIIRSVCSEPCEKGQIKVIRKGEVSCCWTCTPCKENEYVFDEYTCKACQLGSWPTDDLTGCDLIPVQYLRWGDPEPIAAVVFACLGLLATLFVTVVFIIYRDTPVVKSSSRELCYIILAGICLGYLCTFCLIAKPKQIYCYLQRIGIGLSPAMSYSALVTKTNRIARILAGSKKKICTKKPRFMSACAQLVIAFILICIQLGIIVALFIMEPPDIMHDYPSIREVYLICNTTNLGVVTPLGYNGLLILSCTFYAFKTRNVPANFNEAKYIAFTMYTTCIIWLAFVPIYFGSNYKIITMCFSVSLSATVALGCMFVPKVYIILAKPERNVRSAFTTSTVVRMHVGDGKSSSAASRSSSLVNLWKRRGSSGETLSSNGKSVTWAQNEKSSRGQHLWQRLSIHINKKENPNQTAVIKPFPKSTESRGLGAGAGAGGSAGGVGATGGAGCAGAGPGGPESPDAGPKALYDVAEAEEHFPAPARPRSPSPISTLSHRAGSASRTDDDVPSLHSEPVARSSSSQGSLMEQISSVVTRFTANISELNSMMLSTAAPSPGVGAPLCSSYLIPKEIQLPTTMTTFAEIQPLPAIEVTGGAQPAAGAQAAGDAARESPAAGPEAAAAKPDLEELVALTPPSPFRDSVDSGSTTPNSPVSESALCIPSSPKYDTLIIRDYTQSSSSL

Row | SMILES | EC50 [nM]
25 | O=C1c2cc(COc3ccccc3)nn2CCN1c1ncc(F)cn1 [Example 126] | 780

Same assay, conditions: HEK cells transfected with human mGluR5 (H10H or H12H); in presence of EC20 glutamate; read-out: EC50

Row | SMILES | EC50 [nM]
26 | COc1cc(N2CCn3nc(COc4ccccc4)cc3C2=O)nc(C)n1 [Example 105] | 219
27 | COc1cnc(N2CCn3nc(COc4ccccc4)cc3C2=O)nc1OC [Example 107] | 347
28 | CC(C)c1cccc(N2CCn3nc(COc4ccccc4)cc3C2=O)n1 [Example 111] | 93
29 | COc1ccc(N2CCn3nc(COc4ccccc4)cc3C2=O)c(C)n1 [Example 114] | 100
30 | Cc1ccc(N2CCn3nc(COc4ccccc4)cc3C2=O)c(C)n1 [Example 116] | 310
31 | Cc1cnc(C)c(N2CCn3nc(COc4ccccc4)cc3C2=O)n1 [Example 120] | 750
32 | Cc1nc(N2CC(C)n3nc(COc4ccccc4)cc3C2=O)ccc1F (stereo not shown) [Example 134] | 63
33 | C[C@@H]1Cn2nc(COc3ccccc3)cc2C(=O)N1CC1CC1 [Example 137] | 240
34 | Cc1nc(N2C(=O)c3cc(COc4ccccc4)nn3C[C@@H]2C)ccc1F [Example 138] | 316

The next lines start with the values.

Row | EC50 [nM] | SMILES
35 | 170 | Cc1nc(N2C(=O)c3cc(COc4ccccc4)nn3C[C@H]2C)ccc1F [Example 140]
36 | 195 | C[C@@H]1Cn2nc(COc3ccccc3)cc2C(=O)N1c1ccc(F)cn1 [Example 141]
37 | 81 | COc1cc(N2C(=O)c3cc(COc4ccccc4)nn3C[C@H]2C)ccc1F [Example 143]
38 | 174 | COc1ncccc1N1C(=O)c2cc(COc3ccccc3)nn2C[C@H]1C [Example 148]
39 | 794 | COc1nccnc1N1C(=O)c2cc(COc3ccccc3)nn2C[C@H]1C [Example 149]
40 | 29 | Cc1ccccc1N1C(=O)c2cc(COc3ccccc3)nn2C[C@H]1C [Example 154]
41 | 130 | Cc1cc(N2C(=O)c3cc(COc4ccccc4)nn3C[C@H]2C)ncc1F [Example 155]
42 | 540 | COc1nc(N2C(=O)c3cc(COc4ccccc4)nn3C[C@H]2C)ncc1C [Example 156]
43 | 631 | O=C1c2cc(COc3ccncc3)nn2CCN1c1ccc(F)cc1 [Example 160]
44 | 95 | Cc1cccc(OCc2cc3n(n2)CCN(c2ccc(F)cc2)C3=O)c1 [Example 166]
45 | > 10000 | O=C1c2cc(COc3cncc(F)c3)nn2CCN1CC1CC1 [Example 171]
46 | 1260 | Cc1cc(OCc2cc3n(n2)CCN(c2ccc(F)cc2)C3=O)ccn1 [Example 174]

Same assay, conditions: HEK cells transfected with human mGluR5 (H10H or H12H); in presence of EC20 glutamate; read-out: pEC50 (converted)

Row | EC50 [nM] | SMILES
47 | 17.8 | COc1nc(N2CCn3nc(COc4ccccc4)cc3C2=O)ccc1C [Example 108]
48 | 32.4 | Cc1cc(N2C(=O)c3cc(COc4ccccc4)nn3C[C@H]2C)ccc1F [Example 144]
49 | 29.5 | Cc1ccccc1N1C(=O)c2cc(COc3ccccc3)nn2C[C@H]1C [Example 154]

Same assay, conditions: maximum % effect in concentration-response curve, as percent of response to maximally effective glutamate

Row | SMILES | Emax [%]
50 | COc1cc(N2CCn3nc(COc4ccccc4)cc3C2=O)nc(C)n1 [Example 105] | 53
51 | COc1cnc(N2CCn3nc(COc4ccccc4)cc3C2=O)nc1OC [Example 107] | 63
52 | COc1nc(N2CCn3nc(COc4ccccc4)cc3C2=O)ccc1C [Example 108] | 64
53 | CC(C)c1cccc(N2CCn3nc(COc4ccccc4)cc3C2=O)n1 [Example 111] | 68
54 | COc1ccc(N2CCn3nc(COc4ccccc4)cc3C2=O)c(C)n1 [Example 114] | 68
55 | Cc1ccc(N2CCn3nc(COc4ccccc4)cc3C2=O)c(C)n1 [Example 116] | 62
56 | Cc1cnc(C)c(N2CCn3nc(COc4ccccc4)cc3C2=O)n1 [Example 120] | 67
57 | O=C1c2cc(COc3ccccc3)nn2CCN1c1ncc(F)cn1 [Example 126] | 71
58 | Cc1nc(N2CC(C)n3nc(COc4ccccc4)cc3C2=O)ccc1F (stereo not shown) [Example 134] | 70
59 | C[C@@H]1Cn2nc(COc3ccccc3)cc2C(=O)N1CC1CC1 [Example 137] | 66
60 | Cc1nc(N2C(=O)c3cc(COc4ccccc4)nn3C[C@@H]2C)ccc1F [Example 138] | 59

Next, values leading:

Row | Emax [%] | SMILES
61 | 68 | Cc1nc(N2C(=O)c3cc(COc4ccccc4)nn3C[C@H]2C)ccc1F [Example 140]
62 | 66 | C[C@@H]1Cn2nc(COc3ccccc3)cc2C(=O)N1c1ccc(F)cn1 [Example 141]
63 | 62 | COc1cc(N2C(=O)c3cc(COc4ccccc4)nn3C[C@H]2C)ccc1F [Example 143]
64 | 70 | Cc1cc(N2C(=O)c3cc(COc4ccccc4)nn3C[C@H]2C)ccc1F [Example 144]
65 | 71 | COc1ncccc1N1C(=O)c2cc(COc3ccccc3)nn2C[C@H]1C [Example 148]
66 | 64 | COc1nccnc1N1C(=O)c2cc(COc3ccccc3)nn2C[C@H]1C [Example 149]
67 | 72 | Cc1ccccc1N1C(=O)c2cc(COc3ccccc3)nn2C[C@H]1C [Example 154]
68 | 62 | Cc1cc(N2C(=O)c3cc(COc4ccccc4)nn3C[C@H]2C)ncc1F [Example 155]
69 | 79 | COc1nc(N2C(=O)c3cc(COc4ccccc4)nn3C[C@H]2C)ncc1C [Example 156]
70 | 68 | O=C1c2cc(COc3ccncc3)nn2CCN1c1ccc(F)cc1 [Example 160]
71 | 64 | Cc1cccc(OCc2cc3n(n2)CCN(c2ccc(F)cc2)C3=O)c1 [Example 166]
72 | 51 | O=C1c2cc(COc3cncc(F)c3)nn2CCN1CC1CC1 [Example 171]
73 | 34 | Cc1cc(OCc2cc3n(n2)CCN(c2ccc(F)cc2)C3=O)ccn1 [Example 174]

Reference: patent US8592422B2, “Bicyclic triazole and pyrazole lactams as allosteric modulators of mGluR5 receptors” (Vanderbilt University, priority 2010, dated 2013)
